Reference: article PMC10600239, “Selective MCL-1 inhibitor ABBV-467 is efficacious in tumor models but is associated with cardiac troponin increases in patients” (Communications Medicine, 2023)

Columns and labels:
Experiment in all cases: Off-target profiling (Supplementary Data 1)
[1] = target: off-target receptors, ion channels, and transporters (Homo sapiens, UniProt P09619); conditions: TR-FRET Kinome; Invitrogen A-1169612.6 .025(Subs Conc)
[2] = target: off-target receptors, ion channels, and transporters (Homo sapiens, UniProt P42681); conditions: TR-FRET Kinome; SignalChem A-1224127.6 .005(Subs Conc)
[3] = target: off-target receptors, ion channels, and transporters (Homo sapiens, UniProt Q07343); conditions: read-out: PDE4B2 Human - IC50; Bioprofiling 6pt Antag; cAMP
[4] = target: off-target receptors, ion channels, and transporters (Homo sapiens, UniProt P49760); conditions: TR-FRET Kinome; Invitrogen A-1180691.2 .05(Subs Conc)
[5] = target: off-target receptors, ion channels, and transporters (Homo sapiens, UniProt P08588)
[6] = target: off-target receptors, ion channels, and transporters (Homo sapiens, UniProt Q96GD4); conditions: TR-FRET Kinome; Invitrogen A-1202211.2 .05(Subs Conc)
[7] = target: off-target receptors, ion channels, and transporters (Homo sapiens, UniProt O15530); conditions: TR-FRET Kinome; Invitrogen A-1167389.7 .015(Subs Conc)
[8] = target: off-target receptors, ion channels, and transporters (Homo sapiens, UniProt Q13627); conditions: TR-FRET Kinome; Invitrogen A-1180691.2 .0125(Subs Conc)
[9] = target: off-target receptors, ion channels, and transporters (Homo sapiens, UniProt P14416)
[10] = target: off-target receptors, ion channels, and transporters (Homo sapiens, UniProt P41595)
[11] = target: off-target receptors, ion channels, and transporters (Homo sapiens, UniProt P43403); conditions: TR-FRET Kinome; SignalChem A-1167389.7 .015(Subs Conc)
[12] = target: off-target receptors, ion channels, and transporters (Homo sapiens, UniProt P57059); conditions: TR-FRET Kinome; Invitrogen A-1167389.7 .005(Subs Conc)
[13] = target: off-target receptors, ion channels, and transporters (Homo sapiens, UniProt P00533); conditions: TR-FRET Kinome; Invitrogen A-1224127.6 .1(Subs Conc)
[14] = target: off-target receptors, ion channels, and transporters (Homo sapiens, UniProt Q16539); conditions: TR-FRET Kinome; Invitrogen IVGN Tracer 199 .05(Subs Conc)
[15] = target: off-target receptors, ion channels, and transporters (Homo sapiens, UniProt P37231); conditions: Bioprofiling 6pt Ag
[16] = target: off-target receptors, ion channels, and transporters (Homo sapiens, UniProt P49841); conditions: TR-FRET Kinome; Invitrogen A-1169612.6 .006(Subs Conc)
[17] = target: off-target receptors, ion channels, and transporters (Homo sapiens, UniProt Q8IU85); conditions: TR-FRET Kinome; Invitrogen A-1167389.7 .025(Subs Conc)
[18] = target: off-target receptors, ion channels, and transporters (Homo sapiens, UniProt O60674); conditions: TR-FRET Kinome; Invitrogen A-1167389.7 .006(Subs Conc)
[19] = target: off-target receptors, ion channels, and transporters (Homo sapiens, UniProt Q13043); conditions: TR-FRET Kinome; Invitrogen A-1167389.7 .025(Subs Conc)
[20] = target: off-target receptors, ion channels, and transporters (Homo sapiens, UniProt P23219); conditions: CEREP
[21] = target: off-target receptors, ion channels, and transporters (Homo sapiens, UniProt P25101)
[22] = target: off-target receptors, ion channels, and transporters (Homo sapiens, UniProt P46734); conditions: TR-FRET Kinome; Invitrogen A-1224615.7 .2(Subs Conc)
[23] = target: off-target receptors, ion channels, and transporters (Homo sapiens, UniProt Q16288); conditions: TR-FRET Kinome; Invitrogen A-1202211.2 .025(Subs Conc)
[24] = target: off-target receptors, ion channels, and transporters (Homo sapiens, UniProt P08172)
[25] = target: off-target receptors, ion channels, and transporters (Homo sapiens, UniProt O43318); conditions: TR-FRET Kinome, SignalChem A-1167389.7 .05(Subs Conc)
Sequence of off-target receptors, ion channels, and transporters (Homo sapiens, UniProt O43318) (O43318 1-303): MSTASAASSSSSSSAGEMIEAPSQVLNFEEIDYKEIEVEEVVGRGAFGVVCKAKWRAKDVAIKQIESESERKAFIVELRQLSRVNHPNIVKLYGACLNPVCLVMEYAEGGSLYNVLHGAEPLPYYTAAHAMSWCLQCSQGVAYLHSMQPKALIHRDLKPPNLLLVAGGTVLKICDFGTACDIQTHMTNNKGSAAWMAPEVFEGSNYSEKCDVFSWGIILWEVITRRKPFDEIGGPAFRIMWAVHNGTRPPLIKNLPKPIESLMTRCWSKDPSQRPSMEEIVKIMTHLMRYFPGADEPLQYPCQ
Sequence of off-target receptors, ion channels, and transporters (Homo sapiens, UniProt O43318) (Q15750 437-504 partner): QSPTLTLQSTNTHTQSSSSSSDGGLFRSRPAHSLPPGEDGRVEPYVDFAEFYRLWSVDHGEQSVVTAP

Sequence of off-target receptors, ion channels, and transporters (Homo sapiens, UniProt P41595) (P41595 whole entry): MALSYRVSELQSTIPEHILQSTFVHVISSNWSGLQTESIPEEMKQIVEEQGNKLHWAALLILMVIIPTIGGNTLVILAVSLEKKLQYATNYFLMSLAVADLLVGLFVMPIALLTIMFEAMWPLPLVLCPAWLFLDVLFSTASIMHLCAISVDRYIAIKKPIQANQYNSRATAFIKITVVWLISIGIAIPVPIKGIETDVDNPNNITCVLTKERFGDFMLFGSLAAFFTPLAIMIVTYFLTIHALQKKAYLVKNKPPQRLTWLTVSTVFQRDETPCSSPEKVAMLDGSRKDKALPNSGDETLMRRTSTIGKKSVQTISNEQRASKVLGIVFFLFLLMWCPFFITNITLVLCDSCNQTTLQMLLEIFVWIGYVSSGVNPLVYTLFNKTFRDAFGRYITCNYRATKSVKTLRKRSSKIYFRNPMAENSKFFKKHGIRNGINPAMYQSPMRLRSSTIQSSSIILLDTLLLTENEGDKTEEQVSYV
Sequence of off-target receptors, ion channels, and transporters (Homo sapiens, UniProt Q16288) (Q16288 32-839): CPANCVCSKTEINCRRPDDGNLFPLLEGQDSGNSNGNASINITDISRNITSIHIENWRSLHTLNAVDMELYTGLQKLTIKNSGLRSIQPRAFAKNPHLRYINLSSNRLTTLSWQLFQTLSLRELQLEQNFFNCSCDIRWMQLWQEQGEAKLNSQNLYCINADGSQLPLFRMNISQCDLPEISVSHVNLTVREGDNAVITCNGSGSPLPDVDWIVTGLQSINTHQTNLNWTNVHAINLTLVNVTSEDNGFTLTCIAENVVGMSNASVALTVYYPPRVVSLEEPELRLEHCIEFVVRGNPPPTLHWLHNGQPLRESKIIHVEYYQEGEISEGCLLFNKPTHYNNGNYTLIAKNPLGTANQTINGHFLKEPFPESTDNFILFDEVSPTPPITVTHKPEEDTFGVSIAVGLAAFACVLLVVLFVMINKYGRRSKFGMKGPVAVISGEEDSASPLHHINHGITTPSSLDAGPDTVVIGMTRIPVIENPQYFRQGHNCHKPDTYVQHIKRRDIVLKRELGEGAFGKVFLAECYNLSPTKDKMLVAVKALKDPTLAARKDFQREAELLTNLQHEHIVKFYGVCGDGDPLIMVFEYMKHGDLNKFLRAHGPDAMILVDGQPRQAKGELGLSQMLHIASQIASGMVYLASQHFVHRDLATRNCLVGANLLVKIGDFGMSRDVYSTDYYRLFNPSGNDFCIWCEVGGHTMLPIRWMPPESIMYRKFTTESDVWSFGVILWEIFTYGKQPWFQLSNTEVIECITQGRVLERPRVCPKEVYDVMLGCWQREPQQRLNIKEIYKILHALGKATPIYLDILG
Sequence of off-target receptors, ion channels, and transporters (Homo sapiens, UniProt P08172) (P08172 whole entry): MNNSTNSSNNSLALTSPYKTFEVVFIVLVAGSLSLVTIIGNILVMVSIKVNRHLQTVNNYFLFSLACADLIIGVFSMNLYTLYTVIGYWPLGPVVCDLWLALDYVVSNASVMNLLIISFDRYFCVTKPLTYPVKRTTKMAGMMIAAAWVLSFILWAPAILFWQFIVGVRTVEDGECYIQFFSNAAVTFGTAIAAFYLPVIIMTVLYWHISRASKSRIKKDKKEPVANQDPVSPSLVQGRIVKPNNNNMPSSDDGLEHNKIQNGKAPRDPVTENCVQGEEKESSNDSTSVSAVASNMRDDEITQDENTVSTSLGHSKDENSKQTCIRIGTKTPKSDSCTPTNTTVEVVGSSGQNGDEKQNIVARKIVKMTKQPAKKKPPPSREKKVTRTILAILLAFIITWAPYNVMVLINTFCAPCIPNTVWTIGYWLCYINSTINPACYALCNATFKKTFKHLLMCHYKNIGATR
Sequence of off-target receptors, ion channels, and transporters (Homo sapiens, UniProt P25101) (P25101 21-427): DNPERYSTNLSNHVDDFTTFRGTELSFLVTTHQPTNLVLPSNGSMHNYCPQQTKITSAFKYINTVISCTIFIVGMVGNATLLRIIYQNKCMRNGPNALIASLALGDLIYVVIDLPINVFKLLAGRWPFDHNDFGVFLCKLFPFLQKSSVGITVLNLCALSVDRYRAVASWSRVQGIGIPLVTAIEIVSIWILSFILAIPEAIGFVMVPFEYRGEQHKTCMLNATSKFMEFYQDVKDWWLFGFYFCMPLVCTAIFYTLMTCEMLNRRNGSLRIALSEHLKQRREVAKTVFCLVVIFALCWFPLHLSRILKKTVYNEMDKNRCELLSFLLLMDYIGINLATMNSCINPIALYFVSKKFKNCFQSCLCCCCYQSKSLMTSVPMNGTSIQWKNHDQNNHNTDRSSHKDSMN
Sequence of off-target receptors, ion channels, and transporters (Homo sapiens, UniProt P14416) (P14416 whole entry): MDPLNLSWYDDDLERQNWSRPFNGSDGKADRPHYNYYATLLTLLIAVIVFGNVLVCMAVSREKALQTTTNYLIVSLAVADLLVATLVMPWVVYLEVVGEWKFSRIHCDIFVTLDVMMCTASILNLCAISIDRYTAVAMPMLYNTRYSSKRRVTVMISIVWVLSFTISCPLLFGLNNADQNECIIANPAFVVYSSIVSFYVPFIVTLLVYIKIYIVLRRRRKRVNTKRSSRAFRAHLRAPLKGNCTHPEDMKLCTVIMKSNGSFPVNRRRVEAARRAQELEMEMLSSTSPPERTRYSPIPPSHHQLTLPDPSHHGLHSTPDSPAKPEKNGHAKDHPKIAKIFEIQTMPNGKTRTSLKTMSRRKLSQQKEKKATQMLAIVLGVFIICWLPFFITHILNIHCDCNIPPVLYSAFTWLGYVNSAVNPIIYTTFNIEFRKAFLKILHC
Sequence of off-target receptors, ion channels, and transporters (Homo sapiens, UniProt P08588) (P08588 whole entry): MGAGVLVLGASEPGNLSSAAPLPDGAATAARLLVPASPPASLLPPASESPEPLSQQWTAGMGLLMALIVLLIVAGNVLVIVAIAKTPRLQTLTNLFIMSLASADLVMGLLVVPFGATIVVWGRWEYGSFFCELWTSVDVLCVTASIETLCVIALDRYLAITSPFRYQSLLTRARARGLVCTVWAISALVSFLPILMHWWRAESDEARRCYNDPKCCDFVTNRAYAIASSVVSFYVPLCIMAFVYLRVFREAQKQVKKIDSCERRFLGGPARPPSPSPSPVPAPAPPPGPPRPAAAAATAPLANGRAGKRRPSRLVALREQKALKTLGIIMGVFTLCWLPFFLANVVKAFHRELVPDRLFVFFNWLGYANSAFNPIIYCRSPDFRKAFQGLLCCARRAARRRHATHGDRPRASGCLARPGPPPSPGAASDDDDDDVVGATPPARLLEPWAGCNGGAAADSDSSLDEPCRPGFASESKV
Sequence of off-target receptors, ion channels, and transporters (Homo sapiens, UniProt P09619) (P09619 33-1106): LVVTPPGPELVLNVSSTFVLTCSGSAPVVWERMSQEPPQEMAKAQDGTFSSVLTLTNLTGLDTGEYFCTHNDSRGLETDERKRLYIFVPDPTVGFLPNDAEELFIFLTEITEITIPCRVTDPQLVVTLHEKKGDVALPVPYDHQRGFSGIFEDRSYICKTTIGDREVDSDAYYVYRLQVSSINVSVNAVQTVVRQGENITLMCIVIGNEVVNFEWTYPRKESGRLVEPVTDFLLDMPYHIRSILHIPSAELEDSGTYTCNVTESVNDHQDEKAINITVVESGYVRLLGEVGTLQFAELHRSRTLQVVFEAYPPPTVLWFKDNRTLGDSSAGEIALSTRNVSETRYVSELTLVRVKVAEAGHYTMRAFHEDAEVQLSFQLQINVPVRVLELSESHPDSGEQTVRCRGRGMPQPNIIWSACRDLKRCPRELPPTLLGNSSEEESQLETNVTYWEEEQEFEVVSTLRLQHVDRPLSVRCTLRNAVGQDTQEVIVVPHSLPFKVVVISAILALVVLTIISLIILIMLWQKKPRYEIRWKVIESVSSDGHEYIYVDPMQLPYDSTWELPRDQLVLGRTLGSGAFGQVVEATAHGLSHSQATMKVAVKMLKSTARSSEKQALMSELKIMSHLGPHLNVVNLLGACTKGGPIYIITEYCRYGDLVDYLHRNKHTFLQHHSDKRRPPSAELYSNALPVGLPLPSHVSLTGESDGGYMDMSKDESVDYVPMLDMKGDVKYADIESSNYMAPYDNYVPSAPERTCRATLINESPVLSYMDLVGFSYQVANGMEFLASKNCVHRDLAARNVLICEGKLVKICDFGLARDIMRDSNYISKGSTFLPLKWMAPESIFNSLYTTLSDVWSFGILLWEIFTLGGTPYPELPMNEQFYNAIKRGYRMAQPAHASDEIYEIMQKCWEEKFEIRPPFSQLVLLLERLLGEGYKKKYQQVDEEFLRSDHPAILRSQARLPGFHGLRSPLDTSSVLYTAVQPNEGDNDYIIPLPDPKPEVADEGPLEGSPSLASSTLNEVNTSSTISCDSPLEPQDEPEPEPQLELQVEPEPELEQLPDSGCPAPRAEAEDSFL
Sequence of off-target receptors, ion channels, and transporters (Homo sapiens, UniProt Q96GD4) (Q96GD4 whole entry): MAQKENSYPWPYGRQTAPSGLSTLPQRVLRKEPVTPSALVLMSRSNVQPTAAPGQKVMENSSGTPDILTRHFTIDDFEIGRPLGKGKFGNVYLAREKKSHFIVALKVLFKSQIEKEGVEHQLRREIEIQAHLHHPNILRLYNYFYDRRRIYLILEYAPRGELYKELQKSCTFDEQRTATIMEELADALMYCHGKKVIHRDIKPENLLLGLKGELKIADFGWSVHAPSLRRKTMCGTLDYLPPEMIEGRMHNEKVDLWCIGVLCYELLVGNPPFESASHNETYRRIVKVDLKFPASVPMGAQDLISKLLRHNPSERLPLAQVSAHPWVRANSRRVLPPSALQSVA

Which results are given for Cc1c(Cl)c2c(Cl)c(C)c1-c1c(-c3ccc(F)cc3)sc3ncnc(c13)O[C@@H](C(=O)O)Cc1cc(ccc1OCc1ccnc(-c3ccc(OC[C@H]4COCCO4)cc3)n1)OC[C@@H](CN1CCN(C)CC1)O2 [ABBV-467]?
PDGFRB - IC50 [1]: > 10 µM; TXK - IC50 [2]: > 10 µM; IC50 [3]: > 10 µM; CLK2 - IC50 [4]: > 10 µM; Beta1 CHO Human - EC50 ([5]; Bioprofiling 6pt Ag): > 10 µM; Beta1 CHO Human - IC50 ([5]; Bioprofiling 6pt Antag, Norepinephrine): > 10 µM; Aurora1 - IC50 [6]: > 10 µM; PDK1 - IC50 [7]: > 10 µM; Dyrk1A - IC50 [8]: > 10 µM; D2L CHO Human - EC50 ([9]; Bioprofiling 6pt Ag): > 10 µM; D2L CHO Human - IC50 ([9]; Bioprofiling 6pt Antag, Quinpirole): > 10 µM; 5-HT2B CHO Human - EC50 ([10]; Bioprofiling 6pt Ag): > 10 µM; 5-HT2B CHO Human - IC50 ([10]; Bioprofiling 6pt Antag, Serotonin (5-HT)): > 10 µM; 5-HT2B Human (Functional - Agonist Effect) - EC50 ([10]; CEREP): > 100 µM; 5-HT2B Human (Functional - Antagonist Effect) - IC50 ([10]; CEREP): >100.00 µM; 5-HT2B Human (Functional - Antagonist Effect) - Kb ([10]; CEREP): >15.30 µM; Zap70 - IC50 [11]: > 10 µM; SIK1 - IC50 [12]: > 10 µM; EGFR - IC50 [13]: > 10 µM; p38 alpha - IC50 [14]: > 10 µM; PPARgamma Human - EC50 [15]: > 10 µM; Gsk3b - IC50 [16]: 9.9 µM; CAMK1D - IC50 [17]: > 10 µM; JAK2 - IC50 [18]: > 10 µM; MST1 - IC50 [19]: > 10 µM; COX1 Human (Enzymatic Assay) - IC50 [20]: 8.6 µM; ETA CHO Human - EC50 ([21]; Bioprofiling 6pt Ag): > 10 µM; ETA CHO Human - IC50 ([21]; Bioprofiling 6pt Antag, Endothelin-1 (ET-1)): > 10 µM; MAP2K3 - IC50 [22]: > 10 µM; TrkC - IC50 [23]: > 10 µM; TrkC - Ki [23]: >4.65 µM; M2 CHO Human - EC50 ([24]; Bioprofiling 6pt Ag): > 10 µM; M2 CHO Human - IC50 ([24]; Bioprofiling 6pt Antag, Carbachol): > 10 µM; IC50 ([25]; read-out: TAK1-TAB1 - IC50): > 10 µM; Ki ([25]; read-out: TAK1-TAB1 - Ki): > 3.91 µM
